Counter-ions that a name gives are not always drawn. Like-named read-outs stand apart in the source and are kept apart here.
System: carbachol- or histamine-induced bronchoconstriction
Experiment: Bronchodilator Test Method I, anesthetized dog, intravenous activity
Format: in vivo
Settings: Canis lupus familiaris, read-out: Bronchodilatation; for inhibition in vivo at 0.075 mg/kg: 75 mcg/kg i.v.; for inhibition in vivo at […]: 150 mcg/kg i.v.; for inhibition in vivo at 0.3 mg/kg: 300 mcg/kg i.v.; for inhibition in vivo at 0.152 mg/kg: 152 mcg/kg i.v.; for inhibition in vivo at 0.304 mg/kg: 304 mcg/kg i.v.; for inhibition in vivo at 0.02 mg/kg: 20 mcg/kg i.v.; for inhibition in vivo at 0.1 mg/kg: 100 mcg/kg i.v.; for inhibition in vivo at 0.005 mg/kg: 5 mcg/kg i.v.; for inhibition in vivo at 0.014 mg/kg: 14 mcg/kg i.v.; for inhibition in vivo at 0.056 mg/kg: 56 mcg/kg i.v.; for inhibition in vivo at 0.095 mg/kg: 95 mcg/kg i.v.; for inhibition in vivo at 0.19 mg/kg: 190 mcg/kg i.v.; for inhibition in vivo at 0.38 mg/kg: 380 mcg/kg i.v.; for inhibition in vivo at 0.294 mg/kg: 294 mcg/kg i.v.; for inhibition in vivo at 1.176 mg/kg: 1176 mcg/kg i.v.; for inhibition in vivo at 0.147 mg/kg: 147 mcg/kg i.v.
Method: Bronchodilator activity was tested in anesthetized dogs (Test Method I) and in vitro on the perfused guinea pig lung (Test Method II), using the following pharmacological test procedures
Male and female dogs weighing 9-18 kg. each were anesthetized with pentobarbital sodium (30 mg./kg. i.v.). Each animal, with thorax opened at the midsternum, was maintained under artificial ventilation using a constant volume pump (250 ml./stroke; 10 to 12 strokes per minute) attached to the tracheal cannula. The flow of air was controlled by a glass or plastic valve which closed and opened respectively on inflow and outflow of the air to and from the tracheal cannula. Bronchoconstriction and/or bronchodilatation were measured from changes in the basal airway pressure reflected by a transducer attached to the sidearm of the cannula relayed to a polygraph.
Control bronchoconstrictions were induced by intravenous injections of carbachol (choline chloride carbamate) in doses ranging from 4 to 6 micrograms per kilogram or histamine diphosphate in doses ranging from 35 to 45 micrograms per kilogram.
Solutions of the test compounds were prepared in distilled water or in saline (for infusion). […] These solutions were then tested for bronchodilator activity in three ways, viz. (1) by mixing a graded dose of test compound with the constant does of carbachol or histamine in a syringe and injecting the mixture into the femoral vein of the dog, (2) by producing the bronchoconstriction first and injecting the test compound at the time of maximum constriction, and (3) by injecting the test compound first followed by carbachol or histamine in 1-10 minutes. Injections were repeated at 20-30 minutes. Bronchodilator values were obtained by measuring the areas under the response polygraph tracings (the first 5 munite period) of carbachol or histamine controls and of the experimentals using a planimeter. Decrease in the area thus measured was expressed as a percent bronchodilatation in reference to the area of control carbachol or histamine constriction. The mean bronchodilatations (the reductions in constrictions) were plotted against the doses administered and the mean effective dose (ED50) was estimated in micrograms/kilogram from the does-response curves. Blood pressure recording was taken from the femoral artery using an arterial transducer relayed to a polygraph.

**Q.** With `CC(=O)OC(CNC(C)(C)C)c1ccc(OC(=O)c2ccc(C)cc2)c(OC(=O)c2ccc(C)cc2)c1` (stereo not drawn) [Example 134, 3,4-bis(p-toluyloxy)-alpha-(tert-butylaminomethyl)benzyl acetate] as the compound, how does the inhibition in vivo at 0.075 mg/kg (5 min, 5 min) read?
**A.** 25%

**Q.** What about the inhibition in vivo at […] (5 min, 5 min) of the same compound?
**A.** 54%

**Q.** What about the inhibition in vivo at 0.3 mg/kg (5 min, 5 min) of the same compound?
**A.** 47%

**Q.** What about the inhibition in vivo at 0.075 mg/kg (0.5 h, 30 min) of the same compound?
**A.** 21%

**Q.** What about the inhibition in vivo at […] (0.5 h, 30 min) of the same compound?
**A.** 58%

**Q.** And the inhibition in vivo at 0.075 mg/kg (1 h, 60 min)?
**A.** 5%

**Q.** And the inhibition in vivo at […] (1 h, 60 min)?
**A.** 52%

**Q.** What about the inhibition in vivo at 0.075 mg/kg (2 h, 120 min) of the same compound?
**A.** 0%

**Q.** What about the inhibition in vivo at […] (2 h, 120 min) of the same compound?
**A.** 35%

**Q.** What about the inhibition in vivo at 0.075 mg/kg (3 h, 180 min) of the same compound?
**A.** 0%

**Q.** And the inhibition in vivo at […] (3 h, 180 min)?
**A.** 20%

**Q.** And the inhibition in vivo at […] (4 h, 240 min)?
**A.** 0%

**Q.** And the inhibition in vivo at 0.3 mg/kg (4 h, 240 min)?
**A.** 36%

**Q.** Which inhibition in vivo at 0.152 mg/kg (5 min, 5 min) does the source give for `CCC(NC(C)C)C(O)c1ccc(OC(=O)c2ccc(C)cc2)c(OC(=O)c2ccc(C)cc2)c1` (stereo not drawn) [Example 132, 3,4-bis(p-toluyloxy)-alpha-[1-(isopropylamino)propyl]benzyl alcohol hydrochloride] here?
**A.** 67%

**Q.** And the inhibition in vivo at 0.304 mg/kg (5 min, 5 min)?
**A.** 100%

**Q.** And the inhibition in vivo at 0.152 mg/kg (0.5 h, 30 min)?
**A.** 75%

**Q.** And the inhibition in vivo at 0.304 mg/kg (0.5 h, 30 min)?
**A.** 67%

**Q.** What about the inhibition in vivo at 0.152 mg/kg (1 h, 60 min) of the same compound?
**A.** 71%

**Q.** And the inhibition in vivo at 0.152 mg/kg (2 h, 120 min)?
**A.** 52%

**Q.** What about the inhibition in vivo at 0.152 mg/kg (3 h, 180 min) of the same compound?
**A.** 43%

**Q.** And the inhibition in vivo at 0.152 mg/kg (4 h, 240 min)?
**A.** 0%

**Q.** And the inhibition in vivo at 0.152 mg/kg (5 h, 300 min)?
**A.** 0%

**Q.** And the inhibition in vivo at 0.304 mg/kg (5 h, 300 min)?
**A.** 0%

**Q.** Which inhibition in vivo at 0.02 mg/kg (5 min, 5 min) does the source give for `CC(C)CC(=O)OCc1cc(C(O)CNC(C)(C)C)ccc1OC(=O)CC(C)C` (stereo not drawn) [Example 136, 3-(isovaleryloxymethyl)-4-(isovaleryloxy)-alpha-(tert-butylaminomethyl)benzyl alcohol methanesulfonate] here?
**A.** 36%

**Q.** And the inhibition in vivo at 0.1 mg/kg (5 min, 5 min)?
**A.** 82%

**Q.** What about the inhibition in vivo at 0.02 mg/kg (0.5 h, 30 min) of the same compound?
**A.** 53%

**Q.** And the inhibition in vivo at 0.1 mg/kg (0.5 h, 30 min)?
**A.** 80%

**Q.** What about the inhibition in vivo at 0.005 mg/kg (1 h, 60 min) of the same compound?
**A.** 47%

**Q.** And the inhibition in vivo at 0.02 mg/kg (1 h, 60 min)?
**A.** 57%

**Q.** What about the inhibition in vivo at 0.1 mg/kg (1 h, 60 min) of the same compound?
**A.** 70%

**Q.** And the inhibition in vivo at 0.02 mg/kg (2 h, 120 min)?
**A.** 40%

**Q.** What about the inhibition in vivo at 0.1 mg/kg (2 h, 120 min) of the same compound?
**A.** 60%

**Q.** What about the inhibition in vivo at 0.005 mg/kg (3 h, 180 min) of the same compound?
**A.** 53%

**Q.** And the inhibition in vivo at 0.02 mg/kg (3 h, 180 min)?
**A.** 12%

**Q.** What about the inhibition in vivo at 0.1 mg/kg (3 h, 180 min) of the same compound?
**A.** 42%

**Q.** And the inhibition in vivo at 0.005 mg/kg (4 h, 240 min)?
**A.** 46%

**Q.** What about the inhibition in vivo at 0.02 mg/kg (4 h, 240 min) of the same compound?
**A.** 7%

**Q.** What about the inhibition in vivo at 0.005 mg/kg (5 h, 300 min) of the same compound?
**A.** 46%

**Q.** What about the inhibition in vivo at 0.02 mg/kg (5 h, 300 min) of the same compound?
**A.** 12%

**Q.** And the inhibition in vivo at 0.1 mg/kg (5 h, 300 min)?
**A.** 32%

**Q.** For `COc1ccc(CC(=O)Oc2ccc(C(O)CNC(C)(C)C)cc2OC(=O)Cc2ccc(OC)cc2)cc1` (stereo not drawn) [Example 118, 3,4-bis(p-methoxyphenylacetoxy)-alpha-(tert-butylaminomethyl)benzyl alcohol hydrochloride], which inhibition in vivo at 0.014 mg/kg (5 min, 5 min) is on record?
**A.** 68%

**Q.** And the inhibition in vivo at 0.056 mg/kg (5 min, 5 min)?
**A.** 100%

**Q.** What about the inhibition in vivo at 0.014 mg/kg (0.5 h, 30 min) of the same compound?
**A.** 61%

**Q.** And the inhibition in vivo at 0.056 mg/kg (0.5 h, 30 min)?
**A.** 60%

**Q.** And the inhibition in vivo at 0.014 mg/kg (1 h, 60 min)?
**A.** 35%

**Q.** And the inhibition in vivo at 0.056 mg/kg (1 h, 60 min)?
**A.** 45%

**Q.** And the inhibition in vivo at 0.014 mg/kg (2 h, 120 min)?
**A.** 7%

**Q.** And the inhibition in vivo at 0.056 mg/kg (2 h, 120 min)?
**A.** 12%

**Q.** `Cc1ccccc1C(=O)Oc1ccc(C(O)CNC(C)(C)C)cc1OC(=O)c1ccccc1C` (stereo not drawn) [Example 111, 3,4-bis(o-toluyloxy)-alpha-(tert-butylaminomethyl)benzyl alcohol methanesulfonate] was tested. Which inhibition in vivo at 0.0095 mg/kg (1 min, 9.5 mcg/kg i.v., 1-2 min) did it give?
**A.** 0%

**Q.** What about the inhibition in vivo at 0.095 mg/kg (1 min, 1-2 min) of the same compound?
**A.** 34%

**Q.** And the inhibition in vivo at 0.19 mg/kg (1 min, 1-2 min)?
**A.** 27%

**Q.** What about the inhibition in vivo at 0.38 mg/kg (1 min, 1-2 min) of the same compound?
**A.** 33%

**Q.** And the inhibition in vivo at 0.095 mg/kg (0.5 h, 30 min)?
**A.** 36%

**Q.** And the inhibition in vivo at 0.38 mg/kg (0.5 h, 30 min)?
**A.** 53%

**Q.** And the inhibition in vivo at 0.19 mg/kg (1 h, 60 min)?
**A.** 18%

**Q.** What about the inhibition in vivo at 0.0475 mg/kg (2 h, 47.5 mcg/kg i.v., 120 min) of the same compound?
**A.** 0%

**Q.** What about the inhibition in vivo at 0.095 mg/kg (2 h, 120 min) of the same compound?
**A.** 32%

**Q.** What about the inhibition in vivo at 0.19 mg/kg (2 h, 120 min) of the same compound?
**A.** 31%

**Q.** And the inhibition in vivo at 0.38 mg/kg (2 h, 120 min)?
**A.** 55%

**Q.** And the inhibition in vivo at 0.095 mg/kg (3 h, 180 min)?
**A.** 48%

**Q.** And the inhibition in vivo at 0.19 mg/kg (3 h, 180 min)?
**A.** 35%

**Q.** And the inhibition in vivo at 0.38 mg/kg (3 h, 180 min)?
**A.** 38%

**Q.** And the inhibition in vivo at 0.095 mg/kg (4 h, 240 min)?
**A.** 41%

**Q.** And the inhibition in vivo at 0.19 mg/kg (4 h, 240 min)?
**A.** 41%

**Q.** What about the inhibition in vivo at 0.095 mg/kg (5 h, 300 min) of the same compound?
**A.** 50%

**Q.** What about the inhibition in vivo at 0.19 mg/kg (5 h, 300 min) of the same compound?
**A.** 25%

**Q.** Which results are given for `CNCC(O)c1ccc(OC(=O)c2ccc(C)cc2)c(OC(=O)c2ccc(C)cc2)c1` (stereo not drawn) [Example 126, 3,4-bis(p-toluyloxy)-alpha-(methylaminomethyl)benzyl alcohol methanesulfonate]?
**A.** inhibition in vivo at 0.294 mg/kg (1 min, 1-2 min): 13%; inhibition in vivo at 1.176 mg/kg (1 min, 1-2 min): 100%; inhibition in vivo at 0.147 mg/kg (0.5 h, 30 min): 27%; inhibition in vivo at 0.294 mg/kg (0.5 h, 30 min): 8%; inhibition in vivo at 1.176 mg/kg (0.5 h, 30 min): 47%; inhibition in vivo at 0.147 mg/kg (1 h, 60 min): 15%; inhibition in vivo at 0.294 mg/kg (1 h, 60 min): 17%; inhibition in vivo at 1.176 mg/kg (1 h, 60 min): 20%

— patent USRE30241E, “Esters of 3-(hydroxy or hydroxymethyl)-4-hydroxyphenyl aminomethyl ketones” (Sterling Drug Inc., priority 1970, dated 1980)
